Reference: patent publication US20090047365A1, “Novel Concomitant Use of Sulfonamide Compound with Anti-Cancer Agent” (Eisai R & D Management Co., Ltd., priority 2005, published 2009)
pIC50: −log10 of the molar value. Values joined by “and” are separate entries in the source; they are usually repeats but may differ in a detail not shown here. Identical values can stand only once. Counter-ions that a name gives are not always drawn. Like-named read-outs stand apart in the source and are kept apart here. Each block holds one compound with its values, some of them ahead of it.

Key:
HCT116 cells = test: DNA microarray analysis (Example 8), correlation coefficients and hierarchical cluster analysis; format: cell-based, human; conditions: 24 hours treatment at twice the 50% growth inhibitory concentration, similarity among the compounds named together
Procedure: HCT116 cells were cultured in an RPMI-1640 medium supplemented with 10% fetal bovine serum, 100 units/ml penicillin and 100 μg/ml streptomycin. The following cultivation and compound treatment were carried out in an incubator at 5% CO2 and 37° C. HCT116 cells were seeded in 10 cm-diameter cell culture dishes at 2.0×10^6 cells/dish, cultured for 24 hours and subjected to the following compound treatment.
In this example, changes in the gene expression of HCT116 cells upon treatments with 12 compounds, i.e., E7820 (0.16 μM), E7070 (0.26 μM), LY186641 (59 μM), LY295501 (24 μM), LY-573636 (9.6 μM), CQS (4.0 μM), MST16 (100 μM), etoposide (3.6 μM), ethoxzolamide (410 μM), capsaicin (280 μM), trichostatin A (0.16 μM) and kenpaullone (7.1 μM) were examined.
The concentration of each compound used for the treatment was set to twice the 50% growth inhibitory concentration of each compound to the HCT116 cells (based on three days of antiproliferatrive activity using MTT). The cells were collected 24 hours after the treatment at the concentration indicated in parentheses following each compound name above. Similarly, cells cultured for 24 hours without the addition of any compound were also collected.
Total RNA extraction from the collected cells was performed using TRIZOL reagent (Invitrogen) according to the attached instruction.
Gene expression analysis using a DNA microarray was carried out in the same manner as “(2) Analysis of gene expression using DNA microarray” in Example 7.
This example was conducted for each sample in duplicate (for the convenience of the experiment, samples were given branch numbers like control-1, control-2, E7070-1, E7070-2 and so on for distinction). Then, GeneChip (Affymetrix) system (Human Focus array) was used for analyzing changes in the gene expression induced by each compound.
Twenty-six “.cel” files obtained in this example (13 samples (a control+12 compounds)×2) were subjected to RMA method (robust multi-array average method (Biostatistics (2003), 4, 249-264)) for normal distribution at probe level, and then the logarithm value of the signal intensity at gene level was calculated. Next, the logarithm value of the signal intensity of the untreated group (control-1) was subtracted from the logarithm value of the signal intensity of the compound-treated group for each gene to obtain the logarithm value of the signal ratio of the compound-treated group to control-1. Then, cosine correlation coefficients were calculated as correlation coefficients between the experiments (FIG. 5). Based on these correlation coefficients, hierarchical cluster analysis was performed according to UPGMA method (Unweighted Pair Group Method with Arithmetic mean method) (FIG. 6). Control-2 was also subjected to similar calculation (FIGS. 7 and 8). The softwares used were R 2.0.1 (http://www.r-project.org/) and affy package 1.5.8 (http://www.bioconductor.org).

[1] = test system: Human umbilical vein endothelial cells; test: vascular endothelial cell proliferation assay (in vitro), combinational use of E7820 and anti-cancer drug; format: cell-based
Procedure: These diluted solutions were added to the cultured wells for 100 μl/well for further cultivation.

[2] = test system: Human umbilical vein endothelial cell (HUVEC); test: vascular endothelial cell lumen formation assay (in vitro), combinational use of E7820 and anti-cancer drug; format: cell-based
Procedure: Four-hundred μl of type I collagen gel (Nitta Gelatin) was dispensed in a 24-well plate (FALCON) and left in a CO2 incubator at 37° C. for 40 minute for gelatinization. A serum-free medium (Human endothelial-SFM Basal Growth Medium, Invitrogen) containing 20 ng/ml EGF (GIBCO BRL) was prepared. Two-hundred μl of this solution was dispensed in the wells containing type I collagen gel. Human umbilical vein endothelial cell (HUVEC) line was suspended in a serum-free medium (Human endothelial-SFM Basal Growth Medium, GIBCO BRL) to prepare 5×10^5 cells/ml cell suspension. Two-hundred μl of this suspension was seeded on the wells containing the type I collagen gel and the serum-free medium and cultured overnight.
On the following day, the wells were overlaid with 400 μl of type I collagen gel and left in a CO2 incubator at 37° C. for 3 hours for gelatinization. Then, the serum-free media (containing 10 ng/ml EGF and 20 ng/ml VEGF (Genzyme Techne Corp.)) containing E7820 alone, containing an anti-cancer drug alone and containing both E7820 and the anti-cancer drug for combinational use were added for 1.5 ml each and further cultured in a CO2 incubator at 37° C. for 3 days.
After the cultivation, 400 μl of 3.3 mg/ml MTT (SIGMA) solution was dispensed in the wells and reacted in a CO2 incubator at 37° C. for 3 hours for the cells to develop color.

HCT116-C9 = test: cell growth inhibition assay (MTT), parent line of E7070-resistant lines; format: cell-based, human; conditions: HCT116-C9, 72 hours, Example 11, read-out: antiproliferative activity IC50
Procedure: An E7070-resistant cell line was used to assess the antiproliferative activities of E7820, LY186641, LY295501, LY-ASAP and CQS. HCT116-C9 was a substrain separated from human colon cancer-derived HCT116 (American Type Culture Collection, Manassas, Va., U.S.A.). This HCT116-C9 was cultured in the presence of E7070 while incrementally increasing the E7070 concentration, thereby obtaining E7070-resistant substrains HCT116-C9-C1 and HCT116-C9-C4 (Molecular Cancer Therapeutics, 2002, 1, 275-286).
Three cell lines, i.e., HCT116-C9, HCT116-C9-C1 and HCT116-C9-C4, were each seeded at 3000 cells/well onto a 96-well microplate (flat bottom) (50 μl/well). Twenty-four hours later, they were added with a 3-fold dilution series of each compound (50 μl/well). Seventy-two hours later, the antiproliferative activities were assessed by MTT method (Mossmann T., J. Immunol. Methods, 1983, 65, 55-63). The 50% growth inhibitory concentrations to the cancer cells were obtained by a least square method.
In exactly the same manner as in Example 10, an E7070-resistant cell line was used to assess the antiproliferative activities of LY573636 as well as those of E7070.

[3] = combined with E7820, fa 0.6, HUVEC proliferation
[4] = combined with E7820, fa 0.7, HUVEC proliferation
[5] = combined with E7820, fa 0.8, HUVEC proliferation
[6] = combined with E7820, fa 0.9, HUVEC proliferation
[7] = combined with E7820, fa 0.95, HUVEC proliferation

Compound: O=C(Nc1ccc(Cl)cc1)NS(=O)(=O)c1ccc2c(c1)CCC2 [LY186641, N-[[(4-chlorophenyl)amino]carbonyl]-2,3-dihydro-1H-indene-5-sulfonamide]
- changes in gene expression (correlation coefficients, hierarchical cluster analysis) (HCT116 cells): very similar genetic alterations

Compound: CCc1c2c(nc3ccc(O)cc13)-c1cc3c(c(=O)n1C2)COC(=O)[C@]3(O)CC [SN38, 7-ethyl-10-hydro-(20)S-Camptothecin]
- Combination index (CI) [1]: 0.6 and 0.5 and 0.8
- Combined effect [1, 3]: Synergistic
- Combined effect [1, 4]: Synergistic
- Combined effect [1, 5]: Synergistic
- Combined effect [1, 6]: Synergistic
- Combined effect [1, 7]: Synergistic
- Combined effect ([2]; combined with E7820, fa 0.3): Synergistic
- Combined effect ([2]; combined with E7820, fa 0.4): Synergistic
- Combined effect ([2]; combined with E7820, fa 0.5): Synergistic
- Combined effect ([2]; combined with E7820, fa 0.6): Synergistic
- Combined effect ([2]; combined with E7820, fa 0.7): Synergistic
- Combined effect ([2]; combined with E7820, fa 0.8): Synergistic
- Combined effect ([2]; combined with E7820, fa 0.9): Synergistic
- Combined effect ([2]; combined with E7820, fa 0.95): Synergistic

Compound: CN(Cc1cnc2nc(N)nc(N)c2n1)c1ccc(C(=O)N[C@@H](CCC(=O)O)C(=O)O)cc1 [Methotrexate, N-{4-[N-(2,4-diaminopteridin-6-ylmethyl)-N-methylamino]benzoyl}-L-glutamic acid]
- Combined effect [1, 6]: Synergistic
- Combined effect [1, 7]: Synergistic

Compound: 10-[(3-amino-2,3,6-trideoxy-α-L-lyxo-hexopyranosyl)oxy]-7,8,9,10-tetrahydro-6,8,11-tri hydroxy-8-(hydroxyacetyl)-1-methoxy-(8S-cis)-5,12-naphthacenedione [Doxorubicin]
- Combined effect [1, 3]: Synergistic
- Combined effect [1, 4]: Synergistic
- Combined effect [1, 5]: Synergistic
- Combined effect [1, 6]: Synergistic
- Combined effect [1, 7]: Synergistic
- Combined effect ([2]; combined with E7820, fa 0.2): Synergistic
- Combined effect ([2]; combined with E7820, fa 0.3): Synergistic
- Combined effect ([2]; combined with E7820, fa 0.4): Synergistic
- Combined effect ([2]; combined with E7820, fa 0.5): Synergistic
- Combined effect ([2]; combined with E7820, fa 0.6): Synergistic
- Combined effect ([2]; combined with E7820, fa 0.7): Synergistic
- Combined effect ([2]; combined with E7820, fa 0.8): Synergistic
- Combined effect ([2]; combined with E7820, fa 0.9): Synergistic
- Combined effect ([2]; combined with E7820, fa 0.95): Synergistic

Compound: N.N.[Cl][Pt][Cl] [Cisplatin, cis-diamminedichloroplatinum II]
- Combined effect [1, 3]: Synergistic
- Combination index (CI) [1, 4]: 0.7
- Combined effect [1, 4]: Synergistic
- Combination index (CI) [1, 5]: 0.5
- Combined effect [1, 5]: Synergistic
- Combination index (CI) [1, 6]: 0.4
- Combined effect [1, 6]: Synergistic
- Combination index (CI) [1, 7]: 0.3
- Combined effect [1, 7]: Synergistic
- Combination index (CI) ([1]; combined with E7820, fractional inhibition (fa) 0.6, HUVEC proliferation): 0.9
- Combination index (CI) ([2]; combined with E7820, fa 0.05): 0.7
- Combined effect ([2]; combined with E7820, fa 0.05): Synergistic
- Combination index (CI) ([2]; combined with E7820, fa 0.1): 0.6
- Combined effect ([2]; combined with E7820, fa 0.1): Synergistic
- Combination index (CI) ([2]; combined with E7820, fa 0.2): 0.6
- Combined effect ([2]; combined with E7820, fa 0.2): Synergistic
- Combination index (CI) ([2]; combined with E7820, fa 0.3): 0.6
- Combined effect ([2]; combined with E7820, fa 0.3): Synergistic
- Combination index (CI) ([2]; combined with E7820, fa 0.4): 0.5
- Combined effect ([2]; combined with E7820, fa 0.4): Synergistic
- Combination index (CI) ([2]; combined with E7820, fa 0.5): 0.5
- Combined effect ([2]; combined with E7820, fa 0.5): Synergistic
- Combination index (CI) ([2]; combined with E7820, fa 0.6): 0.5
- Combined effect ([2]; combined with E7820, fa 0.6): Synergistic
- Combination index (CI) ([2]; combined with E7820, fa 0.7): 0.5
- Combined effect ([2]; combined with E7820, fa 0.7): Synergistic
- Combination index (CI) ([2]; combined with E7820, fa 0.8): 0.5
- Combined effect ([2]; combined with E7820, fa 0.8): Synergistic
- Combination index (CI) ([2]; combined with E7820, fa 0.9): 0.5
- Combined effect ([2]; combined with E7820, fa 0.9): Synergistic
- Combination index (CI) ([2]; combined with E7820, fa 0.95): 0.4
- Combined effect ([2]; combined with E7820, fa 0.95): Synergistic

Compound: O=C(NS(=O)(=O)c1ccc(Br)s1)c1ccc(Cl)cc1Cl [LY573636, N-(2,4-dichlorobenzoyl)-5-bromothiophene-2-sulfonamide]
- changes in gene expression (correlation coefficients, hierarchical cluster analysis) (HCT116 cells): very similar genetic alterations

- pIC50 (HCT116-C9): 6.90
Compound: NS(=O)(=O)c1ccc(S(=O)(=O)Nc2cccc3c(Cl)c[nH]c23)cc1 [E7070, N-(3-chloro-1H-indole-7-yl)-4-sulfamoylbenzenesulfonamide]
- changes in gene expression (correlation coefficients, hierarchical cluster analysis) (HCT116 cells): very similar genetic alterations

Compound: O=C(Nc1ccc(Cl)c(Cl)c1)NS(=O)(=O)c1ccc2c(c1)CCO2 [LY295501, N-[[(3,4-dichlorophenyl)amino]carbonyl]-2,3-dihydrobenzofuran-5-sulfonamide]
- changes in gene expression (correlation coefficients, hierarchical cluster analysis) (HCT116 cells): very similar genetic alterations

Compound: Nc1ccc(S(=O)(=O)Nc2cnc3c(Cl)cccc3n2)cc1 [CQS, 2-sulfanylamide-5-chloroquinoxaline]
- changes in gene expression (correlation coefficients, hierarchical cluster analysis) (HCT116 cells): very similar genetic alterations

Compound: Nc1ccn([C@@H]2O[C@H](CO)[C@@H](O)C2(F)F)c(=O)n1 [Gemcitabine, 2′-deoxy-2′,2′-difluoro-cytidine hydrochloride]
- Combined effect [1, 5]: Synergistic
- Combined effect [1, 6]: Synergistic
- Combined effect ([2]; combined with E7820, fa 0.3): Synergistic
- Combined effect ([2]; combined with E7820, fa 0.4): Synergistic
- Combined effect ([2]; combined with E7820, fa 0.5): Synergistic
- Combined effect ([2]; combined with E7820, fa 0.6): Synergistic
- Combined effect ([2]; combined with E7820, fa 0.7): Synergistic
- Combined effect ([2]; combined with E7820, fa 0.8): Synergistic
- Combined effect ([2]; combined with E7820, fa 0.9): Synergistic
- Combined effect ([2]; combined with E7820, fa 0.95): Synergistic

Compound: CC(=O)O[C@H]1C(=O)[C@@]2(C)[C@H]([C@H](OC(=O)c3ccccc3)[C@]3(O)C[C@H](OC(=O)[C@H](O)[C@@H](NC(=O)c4ccccc4)c4ccccc4)C(C)=C1C3(C)C)[C@]1(OC(C)=O)CO[C@@H]1C[C@@H]2O [Paclitaxel, (−)-(1S, 2R, 3S, 4S, 5R, 7S, 8S, 10R, 13S)-4,10-diacetoxy-2-benzoyloxy-5,20-epoxy, 1,7-dihydroxy-9-oxotax-11-en-13-yl (2S,3S)-3-benzoylamino-2-hydroxy-3-phenylpropionate]
- Combined effect [1, 4]: Synergistic
- Combined effect [1, 5]: Synergistic
- Combined effect [1, 6]: Synergistic
- Combined effect [1, 7]: Synergistic
- Combined effect ([2]; combined with E7820, fa 0.7): Synergistic
- Combined effect ([2]; combined with E7820, fa 0.8): Synergistic
- Combined effect ([2]; combined with E7820, fa 0.9): Synergistic
- Combined effect ([2]; combined with E7820, fa 0.95): Synergistic
